Experiment: Solvent evaporation of nanoemulsion, crystal formation (electron microscopy)
Type: physicochemical
Conditions: evaporation performed after the beads formation, FIG. 4
Method: The organic solvent (toluene) was evaporated with Rotavapor (R-114 BUCHI) from the emulsion to form a dispersion of lipophilic drug in water. The organic solvent evaporation was performed in four steps, water was added up to the initial weight after each step.

For `CCC(C)(C)C(=O)O[C@H]1C[C@@H](C)C=C2C=C[C@H](C)[C@H](CC[C@@H]3C[C@@H](O)CC(=O)O3)[C@H]21` [simvastatine], which “drug particle state after solvent evaporation” value is on record?
Its value is “remain as nanoparticles”.

— patent publication US20080038333A1, “Formulations For Poorly Soluble Drugs” (Bio-Dar Ltd., priority 2004, published 2008)
